# Test results from US11090292B2, “Compositions and methods of use of an inappetance-controlling compound” (Aratana Therapeutics, Inc., priority 2012, dated 2021).
# Legend:
# growth hormone (GH) = experiment: Example 1: serum GH concentration; format: in vivo, Beagle dogs; conditions: once-daily 6 mg/kg or twice-daily 3 mg/kg, approximately 0.5 h after dosing, days 1, 2, 4, 7
# Description: A controlled, seven-day study was performed to assess the impact of different capromorelin-dosing regimens on the production of insulin-like growth factor 1 (hereinafter “IGF-1”), growth hormone (hereinafter “GH”), and cortisol. The different capromorelin-dosing regimens were also assessed for the impact on food intake and changes in body mass.
# Eighteen adult non-naïve Beagle dogs (nine males and nine females) were divided into one of three treatment groups. Each of the three treatment groups included three males and three females. Group A, which was the control group, was dosed twice per day, via oral gavage, with a vehicle (deionized water alone) and was used as a baseline data point for comparison against the active treatment regimens. Group B comprised an active treatment group that received two treatments per day, via oral gavage, with a capromorelin-containing composition with a concentration of 3 mg/kg capromorelin per treatment. Finally, Group C comprised an active treatment group that received one treatment per day, via oral gavage, with a capromorelin-containing composition with a concentration of 6 mg/kg capromorelin per treatment.
# During the ten day study period, on an at least once-daily basis, each of the dogs was monitored for clinical observations, mortality, morbidity, body mass, and food consumption. […]
# [1] = Example 5 seven-day study with flavored Formulation 9: food consumption and body weight; format: in vivo, Beagle dogs; conditions: for more food consumed, Day 7 compared with Day −1: oral syringe, Formulation 9
# Description: (§1) In order to further refine the dosing regimen that would provide an appropriate blood profile of capromorelin and desired results from the perspective of increased food intake and weight gain, an additional series of experiments were conducted. In these experiments, twenty-four adult (male and female) Beagle dogs weighing approximately 9 to 13 kilograms were randomly divided into four groups. Group 1 received a placebo formulation, without any active compound, two times per day; Group 2 received a composition comprising 3 mg/kg of body weight of capromorelin one time per day; Group 3 received a composition comprising 4.5 mg/kg of body weight of capromorelin one time per day; and Group 4 received a composition comprising 3 mg/kg of body weight of capromorelin two times per day.
# (§2) In particular, on the first day of dosing, Day 1, through the last day of dosing, Day 7, the compositions were orally administered (i.e., using a syringe) to the animals in a flavored formulation of the following composition: […]
# (§3) In these experiments, the animals were orally administered the flavored formulation at approximately 8:00 AM and, for Group 4 only, again at 6:00 PM. The animals were fed at 10:00 AM beginning seven days prior to Day 1 and continuing for the duration of the study. The animals were offered twice the normal amount of food. Approximately two hours after the food offering, the remainder was removed and weighed to assess food intake. This restricted feeding regime was started at Day −7 to allow the animals to transition to a normal feed intake before the study was initiated. Food consumption was calculated and recorded on Days −7 through Day 7. Baseline food consumption was calculated for each individual dog as the average number of grams of food consumed on Days −3, −2, and −1. The study period food consumption was calculated for each individual dog as the average of Days 1 through 7. Body weights were collected on Days −1, 3, and 7. Blood was collected for measurements of capromorelin, growth hormone, cortisol, and IGF-1 concentrations on Days 1, 4, and 7 at about 15 minutes pre-administration, immediately prior to dosing (0 minutes), 30, 45, 60, 90, 120, 240, 360, and/or 480 minutes post dosing via the jugular or other accessible vessel. As reflected by the data in FIGS. 61-74, the animals' response to the capromorelin-containing composition is largely in accord with the results discussed above.
# [2] = Example 5: capromorelin concentration in serum; format: in vivo, Beagle dogs
# Description: as §1, §2
# as §3, with “Blood was collected for measurements of capromorelin, growth hormone, cortisol, and IGF-1 concentrations on Days 1, 4, and 7 at about 15 minutes pre-administration, immediately prior to dosing (0 minutes), 30, 45, 60, 90, 120, 240, 360, and/or 480 minutes post dosing via the jugular or other accessible vessel. As reflected by the data in FIGS. 61-74, the animals' response to the capromorelin-containing composition is largely in accord with the results discussed above.” left out
# IGF-1 = experiment: Example 9: serum IGF-1 concentration; format: in vivo, cats
# Description: A four-day study was performed to further assess the pharmacokinetics of formulation 8 from Example 3 (i.e., the most “well-accepted” formulation) in cats. Moreover, the administration of formulation 8 was also analyzed to determine if administration of this formulation could induce sustained production of IGF-1 and relatively depressed, mitigated, or lower levels of cortisol. The different capromorelin-dosing regimens were also assessed for the impact on food intake and changes in body mass.
# Twenty-four adult cats were divided into one of four treatment groups, with all four groups as active treatment groups. Each of the active treatment groups included 6 cats. The first group received a sterile injection of a capromorelin composition containing a 0.75 mg/kg concentration of capromorelin once per day during the four-day experiment. The second group received a once-daily sterile injection of a capromorelin composition at a concentration of 2 mg/kg. The third group received a once-daily dose of a capromorelin composition at a concentration of 2 mg/kg, via oral gavage. The fourth group received a once-daily dose of a capromorelin composition containing capromorelin at a concentration of 4 mg/kg, via oral gavage.
# During the seven day study period, on an at least once-daily basis, each of the cats was monitored for clinical observations, mortality, moribundity, body mass, acceptability/palatability, and food consumption. Serum samples were taken to measure capromorelin concentration, IGF-1 concentration, and cortisol concentration. Serum samples were taken on days 1 and 4 immediately prior to dosing (0 minutes) and 30, 60, 90, 120, 240, 360, and/or 480 minutes post dosing. Additional serum samples were taken at 8 AM on Day 7 of the study to assess long-term impact of the active treatments.
smiles,measurement,setting,value
CN1N=C2CCN(C(=O)[C@@H](COCc3ccccc3)NC(=O)C(C)(C)N)C[C@@]2(Cc2ccccc2)C1=O.O=C(O)C(O)C(O)C(=O)O [capromorelin],GH levels in the serum after dosing,growth hormone (GH),marked increase
same,"Comparison of Weight on Day −1 to Weight on Day 7 (X ± SD, %)","[1]; Group 2, 3 mg/kg 1x per day",4.52 ± 1.67%
same,"more food consumed, Day 7 compared with Day −1","[1]; Group 2, 3 mg/kg one time per day",42.7%
same,"Comparison of Weight on Day −1 to Weight on Day 7 (X ± SD, %)","[1]; Group 3, 4.5 mg/kg 1x per day",3.78 ± 2.93%
same,"more food consumed, Day 7 compared with Day −1","[1]; Group 3, 4.5 mg/kg one time per day",34.5%
same,"Comparison of Weight on Day −1 to Weight on Day 7 (X ± SD, %)","[1]; Group 4, 3 mg/kg 2x per day",4.17 ± 1.35%
same,"more food consumed, Day 7 compared with Day −1","[1]; Group 4, 3 mg/kg two times per day",31.5%
same,serum capromorelin by 8 hours,"[2]; Days 1 and 7, Groups 2-4",back to baseline levels
same,time post administration of initial spike of serum capromorelin,"[2]; Days 1 and 7, Groups 2-4",30 min
same,capromorelin accumulation,[2]; seven days of dosing,no evidence of capromorelin accumulation
same,increase in serum IGF-1 concentration at eight hours post administration relative to time 0,"IGF-1; 0.75 mg/kg sterile injectable, day 1",approximately 39.8%
same,increase in serum IGF-1 concentration at eight hours post administration relative to time 0,"IGF-1; 0.75 mg/kg sterile injectable, day 4",approximately 12.2%
same,increase in serum IGF-1 concentration at eight hours post administration relative to time 0,"IGF-1; 2 mg/kg oral, day 1",approximately 26.6%
same,increase in serum IGF-1 concentration at eight hours post administration relative to time 0,"IGF-1; 2 mg/kg oral, day 4",approximately 7.6%
same,increase in serum IGF-1 concentration at eight hours post administration relative to time 0,"IGF-1; 2 mg/kg sterile injectable, day 1",~43.1%
same,increase in serum IGF-1 concentration at eight hours post administration relative to time 0,"IGF-1; 2 mg/kg sterile injectable, day 4",~10.8%
same,increase in serum IGF-1 concentration at eight hours post administration relative to time 0,"IGF-1; 4 mg/kg oral, day 1",~30.8%
same,increase in serum IGF-1 concentration at eight hours post administration relative to time 0,"IGF-1; 4 mg/kg oral, day 4",~0.7%
